Results as given in patent US20210186970A1, “SELECTIVE CALCIUM CHANNEL ANTAGONISTS” (Northwestern University, priority 2011, published 2021).
Read-outs that look alike come from different tables or passages of the source.

Key:
[1] = target: T1, Cav1.3 L-type Ca channels (Rattus norvegicus, UniProt P27732); experiment: FLIPR Fluo-8 calcium assay, Cav1.3 channel inhibition in HEK293 cells; type: cell-based; details: for IC50: FLIPR, HEK293, value (±SD); for Selectivity: ratio of IC50 Cav1.2 to Cav1.3
T1 construct: expressed in transfected cells; host or cells: HEK293

[2] = target: Cav1.2 L-type Ca channels (Oryctolagus cuniculus, UniProt P15381); experiment: FLIPR Fluo-8 calcium assay, Cav1.2 channel inhibition in HEK293 cells
Cav1.2 L-type Ca channels, sequence (P15381 whole entry): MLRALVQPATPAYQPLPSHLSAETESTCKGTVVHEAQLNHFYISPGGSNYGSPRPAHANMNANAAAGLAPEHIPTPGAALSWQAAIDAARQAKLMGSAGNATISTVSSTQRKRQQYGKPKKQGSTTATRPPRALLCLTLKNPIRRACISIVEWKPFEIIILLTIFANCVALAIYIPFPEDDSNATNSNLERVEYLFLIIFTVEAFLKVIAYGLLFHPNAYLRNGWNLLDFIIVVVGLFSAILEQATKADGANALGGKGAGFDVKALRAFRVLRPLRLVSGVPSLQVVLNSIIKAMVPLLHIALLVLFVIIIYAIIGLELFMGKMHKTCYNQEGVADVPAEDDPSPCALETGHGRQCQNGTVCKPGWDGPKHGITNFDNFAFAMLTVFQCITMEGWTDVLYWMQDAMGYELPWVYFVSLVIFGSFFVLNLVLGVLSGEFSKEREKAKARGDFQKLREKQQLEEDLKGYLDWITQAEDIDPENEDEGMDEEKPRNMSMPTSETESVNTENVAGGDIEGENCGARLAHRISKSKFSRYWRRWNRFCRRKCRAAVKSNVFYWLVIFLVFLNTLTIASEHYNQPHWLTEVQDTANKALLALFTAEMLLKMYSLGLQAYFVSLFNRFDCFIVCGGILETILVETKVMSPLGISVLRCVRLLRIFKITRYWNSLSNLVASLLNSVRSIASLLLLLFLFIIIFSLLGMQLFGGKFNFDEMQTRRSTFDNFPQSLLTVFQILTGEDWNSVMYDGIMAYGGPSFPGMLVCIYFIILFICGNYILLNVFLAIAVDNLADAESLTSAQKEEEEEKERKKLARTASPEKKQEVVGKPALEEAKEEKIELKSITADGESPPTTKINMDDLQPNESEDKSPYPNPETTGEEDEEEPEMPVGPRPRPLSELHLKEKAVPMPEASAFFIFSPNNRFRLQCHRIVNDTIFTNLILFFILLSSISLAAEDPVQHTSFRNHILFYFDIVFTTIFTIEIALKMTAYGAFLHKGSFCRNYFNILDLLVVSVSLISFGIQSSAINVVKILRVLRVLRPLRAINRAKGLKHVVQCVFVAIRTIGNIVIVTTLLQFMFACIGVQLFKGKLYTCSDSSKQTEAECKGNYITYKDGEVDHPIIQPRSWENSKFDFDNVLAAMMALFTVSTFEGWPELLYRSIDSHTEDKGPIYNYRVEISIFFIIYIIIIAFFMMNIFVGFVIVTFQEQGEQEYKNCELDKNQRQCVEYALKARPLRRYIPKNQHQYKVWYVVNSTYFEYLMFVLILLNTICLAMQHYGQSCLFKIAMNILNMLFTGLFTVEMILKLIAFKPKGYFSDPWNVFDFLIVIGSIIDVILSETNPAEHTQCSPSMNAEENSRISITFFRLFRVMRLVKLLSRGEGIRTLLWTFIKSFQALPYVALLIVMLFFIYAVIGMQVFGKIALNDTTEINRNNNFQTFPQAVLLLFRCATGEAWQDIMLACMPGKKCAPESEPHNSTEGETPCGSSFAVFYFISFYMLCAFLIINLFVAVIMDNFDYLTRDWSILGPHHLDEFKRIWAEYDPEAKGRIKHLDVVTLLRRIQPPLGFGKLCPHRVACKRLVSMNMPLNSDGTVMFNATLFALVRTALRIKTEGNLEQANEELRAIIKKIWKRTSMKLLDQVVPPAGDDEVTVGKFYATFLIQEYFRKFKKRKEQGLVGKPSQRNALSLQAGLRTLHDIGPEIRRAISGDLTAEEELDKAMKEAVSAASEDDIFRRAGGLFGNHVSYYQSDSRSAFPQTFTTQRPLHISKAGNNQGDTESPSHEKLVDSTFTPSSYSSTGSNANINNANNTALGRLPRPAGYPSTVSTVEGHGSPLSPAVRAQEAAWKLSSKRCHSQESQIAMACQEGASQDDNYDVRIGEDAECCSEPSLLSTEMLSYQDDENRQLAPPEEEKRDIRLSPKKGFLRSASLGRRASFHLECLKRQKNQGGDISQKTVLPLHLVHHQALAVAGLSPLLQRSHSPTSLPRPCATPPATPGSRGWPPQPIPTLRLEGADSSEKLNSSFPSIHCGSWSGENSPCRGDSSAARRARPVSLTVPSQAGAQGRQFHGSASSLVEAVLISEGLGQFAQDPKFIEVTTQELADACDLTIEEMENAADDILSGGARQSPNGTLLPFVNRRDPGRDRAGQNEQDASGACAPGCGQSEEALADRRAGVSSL
Cav1.2 L-type Ca channels, sequence (P54284 whole entry partner): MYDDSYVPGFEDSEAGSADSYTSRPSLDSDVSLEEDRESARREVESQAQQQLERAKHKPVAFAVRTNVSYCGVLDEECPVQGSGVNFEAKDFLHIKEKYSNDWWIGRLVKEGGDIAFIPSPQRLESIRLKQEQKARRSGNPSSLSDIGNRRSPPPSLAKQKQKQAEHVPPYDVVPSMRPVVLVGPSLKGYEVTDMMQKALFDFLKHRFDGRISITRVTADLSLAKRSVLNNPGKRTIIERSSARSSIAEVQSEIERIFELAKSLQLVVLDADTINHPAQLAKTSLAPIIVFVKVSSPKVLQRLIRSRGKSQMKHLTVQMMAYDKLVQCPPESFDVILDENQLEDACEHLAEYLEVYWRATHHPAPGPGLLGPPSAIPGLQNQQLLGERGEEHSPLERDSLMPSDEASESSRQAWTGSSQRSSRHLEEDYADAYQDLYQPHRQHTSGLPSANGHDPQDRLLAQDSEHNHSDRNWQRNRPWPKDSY
Cav1.2 L-type Ca channels, sequence (P54289 25-956 partner limits assumed): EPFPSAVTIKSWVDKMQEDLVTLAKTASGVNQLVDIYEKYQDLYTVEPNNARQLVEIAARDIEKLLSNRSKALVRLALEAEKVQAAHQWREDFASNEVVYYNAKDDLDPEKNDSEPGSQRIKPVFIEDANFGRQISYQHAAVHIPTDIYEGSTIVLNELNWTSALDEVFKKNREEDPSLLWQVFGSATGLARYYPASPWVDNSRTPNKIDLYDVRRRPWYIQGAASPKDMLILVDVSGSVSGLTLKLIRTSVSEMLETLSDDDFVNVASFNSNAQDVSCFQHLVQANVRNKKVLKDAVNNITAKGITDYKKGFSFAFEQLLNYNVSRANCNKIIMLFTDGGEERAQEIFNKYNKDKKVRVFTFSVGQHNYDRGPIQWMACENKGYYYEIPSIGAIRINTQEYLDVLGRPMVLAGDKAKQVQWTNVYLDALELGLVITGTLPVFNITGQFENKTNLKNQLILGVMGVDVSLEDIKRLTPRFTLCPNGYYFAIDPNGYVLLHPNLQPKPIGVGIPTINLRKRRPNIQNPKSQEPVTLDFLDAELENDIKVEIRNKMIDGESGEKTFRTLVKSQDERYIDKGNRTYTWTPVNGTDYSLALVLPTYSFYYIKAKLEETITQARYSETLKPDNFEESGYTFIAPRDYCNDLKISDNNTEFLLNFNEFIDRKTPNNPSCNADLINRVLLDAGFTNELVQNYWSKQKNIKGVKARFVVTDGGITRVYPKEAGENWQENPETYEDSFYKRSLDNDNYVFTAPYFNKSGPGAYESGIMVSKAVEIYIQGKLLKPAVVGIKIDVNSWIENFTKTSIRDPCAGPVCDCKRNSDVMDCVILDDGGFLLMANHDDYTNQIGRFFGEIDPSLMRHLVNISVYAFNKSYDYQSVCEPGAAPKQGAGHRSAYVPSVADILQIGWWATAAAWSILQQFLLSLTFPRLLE
Cav1.2 L-type Ca channels, sequence (P54289 957-1103 partner limits assumed): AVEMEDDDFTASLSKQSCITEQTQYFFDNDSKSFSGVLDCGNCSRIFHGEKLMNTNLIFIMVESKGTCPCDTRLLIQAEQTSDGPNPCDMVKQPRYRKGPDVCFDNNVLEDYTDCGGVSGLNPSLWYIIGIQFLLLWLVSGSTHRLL

[3] = IC50 (μM) Cav1.3, third library
[4] = IC50 (μM) Cav1.2, third library, FLIPR, HEK293, value (±SD)
[5] = first library, read-out: IC50 (μM) CaV1.3
[6] = IC50 (μM) CaV1.2, first library, FLIPR, HEK293, value (±SD)
[7] = IC50 (μM) Cav1.3, second library
[8] = IC50 (μM) Cav1.2, second library, FLIPR, HEK293, value (±SD)
[9] = IC50 (μM) CaV1.3, first library

| Compound | Selectivity ([1]; first library) | IC50 [2, 6] | IC50 [1, 9] | also measured |
| --- | --- | --- | --- | --- |
| Cc1cccc(CCN2C(=O)CC(=O)N(C3CCCC3)C2=O)c1 [Compound 97] |  |  |  | IC50 [1, 3]: 1.1 µM; Selectivity ([1]; third library): 49.1; IC50 [2, 4]: 52.1 µM |
| CCC(C)N1C(=O)CC(=O)N(CCc2cccc(C(F)(F)F)c2)C1=O (stereo not drawn) [Compound 108] |  |  |  | IC50 [1, 3]: 3.4 µM; Selectivity ([1]; third library): 10.5; IC50 [2, 4]: 35.9 µM |
| O=C1CC(=O)N(C2Cc3ccccc3C2)C(=O)N1CCCCc1ccccc1 [Compound 51] | 1.5 | 4.9 µM |  | IC50 [1, 5]: 3.3 µM |
| O=C1CC(=O)N(C2CCc3ccccc32)C(=O)N1C1CCCCC1 (stereo not drawn) [Compound 85] |  |  |  | IC50 [1, 7]: 16.4 µM; Selectivity ([1]; second library): 1.2; IC50 [2, 8]: 19.2 µM |
| O=C1CC(=O)N(CCc2ccc(Br)cc2)C(=O)N1CCCCc1ccccc1 [Compound 40] | 1.9 | 2 µM | 1.1 µM |  |
| O=C1CC(=O)N(CCc2ccc([N+](=O)[O-])cc2)C(=O)N1CCc1ccc(Cl)cc1 [Compound 23] | 0.8 |  |  | IC50 [1, 5]: 3.4 µM; IC50 [2]: 2.7 µM |
| O=C1CC(=O)N(C2CCCCC2)C(=O)N1Cc1cccc([N+](=O)[O-])c1 [Compound 83] |  |  |  | IC50 [1, 7]: 48.2 µM; Selectivity ([1]; second library): 1.2; IC50 [2, 8]: 59.5 µM |
| O=C1CC(=O)N(C2CCCCC2)C(=O)N1CCc1ccc(Br)cc1 [Compound 77] |  |  |  | IC50 [1, 7]: 0.8 µM; Selectivity ([1]; second library): 26.4; IC50 [2, 8]: 21.3 µM |
| O=C1CC(=O)N(CCc2ccc(Cl)cc2)C(=O)N1CCc1ccc(Cl)cc1 [Compound 11] | 1.2 | 2.1 µM | 1.8 µM |  |
| O=C1CC(=O)N(CCc2ccc3ccccc3c2)C(=O)N1CCCCc1ccccc1 [Compound 53] | 1.3 | 2.5 µM | 1.9 µM |  |
| COC(=O)[C@H](C)N1C(=O)CC(=O)N(CCc2ccc(Cl)cc2)C1=O [Compound 35] | 1.1 | 88.2 µM | 77.7 µM |  |
| O=C1CC(=O)N(Cc2ccc(Cl)cc2)C(=O)N1CCCCc1ccccc1 [Compound 48] | 3.7 | 7.7 µM | 2.1 µM |  |
| O=C(O)c1cccc(CCN2C(=O)CC(=O)N(C3CCCCC3)C2=O)c1 [Compound 89] |  |  |  | IC50 [1, 7]: 73 µM; Selectivity ([1]; second library): 0.9; IC50 [2, 8]: 64.7 µM |
| O=C1CC(=O)N(CCc2ccc3ccccc3c2)C(=O)N1CCc1ccc2ccccc2c1 [Compound 62] | 0.6 | 1.8 µM | 2.9 µM |  |
| O=C1CC(=O)N(C2CCCc3ccccc32)C(=O)N1CCCCc1ccccc1 (stereo not drawn) [Compound 50] | 0.9 | 34.1 µM | 36.5 µM |  |
| CC(C)(C)N1C(=O)CC(=O)N(CCc2cccc(C(F)(F)F)c2)C1=O [Compound 106] |  |  |  | IC50 [1, 3]: 1.1 µM; Selectivity ([1]; third library): 5.7; IC50 [2, 4]: 6.1 µM |
| O=C1CC(=O)N(Cc2cccc([N+](=O)[O-])c2)C(=O)N1CCc1ccc2ccccc2c1 [Compound 65] | 1.0 | 5 µM | 4.8 µM |  |
| O=C1CC(=O)N(CCc2ccc(Cl)cc2)C(=O)N1CCc1ccc(F)cc1 [Compound 18] | 3.1 | 3.3 µM | 1.1 µM |  |
| O=C1CC(=O)N(C2CCCCCC2)C(=O)N1CCc1ccc(Cl)cc1 [Compound 92] |  |  |  | IC50 [1, 3]: 2.2 µM; Selectivity ([1]; third library): 15.0; IC50 [2, 4]: 32.8 µM |
| O=C1CC(=O)N(CCc2ccc3ccccc3c2)C(=O)N1CCc1ccc(F)cc1 [Compound 64] | 2.1 | 3.8 µM | 1.8 µM |  |
| O=C1CC(=O)N(CCc2cccc([N+](=O)[O-])c2)C(=O)N1CCCCc1ccccc1 [Compound 47] | 1.0 | 3 µM | 3 µM |  |
